Tests used:
[1] = system: B16F10 melanoma cells; assay: XTT cytotoxicity assay, B16F10 melanoma cells; assay type: cell-based; conditions: B16F10, MMP-9 added to culture media
[2] = system: RAW 264.7 macrophages; assay: XTT cytotoxicity assay, RAW 264.7 macrophages; assay type: cell-based; conditions: 3 hours at 37° C., FIGS. 1A-1C
Procedure: (§1) The conjugate was compared to melittin and to melittin coupled only to linker in order to determine toxicity to endothelial cells and macrophages, as well as hemolysis. For assessment of cytotoxicity, 2F2B endothelial cells (CRL-2168; American Type Culture Collection, Manassas, Va.) or RAW 264.7 macrophages (TIB-71; American Type Culture Collection, Manassas, Va.) were plated in a 96-well plate at a concentration of 15,000 cells/well and allowed to attach overnight. The peptide of interest was then added and incubated with the cells for 3 hours at 37° C. Following this incubation, the agent of interest was removed, cells were washed with phosphate-buffered saline, and cell viability was determined by XTT assay (Biotium, Hayward, Calif.). This assay measures the ability of cellular oxidoreductases to reduce the XTT reagent, resulting in a colored product. Briefly, cells were incubated with the activated XTT reagent for 3 hours at 37° C. with shaking at 200 rpm. The absorbance of each well at 450 nm was then measured using a Bio-Rad Model 550 plate reader (Bio-Rad Laboratories, Hercules, Calif.) with reference wavelength 630 nm.
(§2) To assess the impact of proteolytic cleavage on conjugate cytotoxicity and hemolytic activity, we repeated these experiments following cleavage of the conjugate by matrix metalloproteinase-9 (MMP-9). […]

[3] = system: red blood cells; assay: Hemolysis of red blood cells; assay type: cell-based, New Zealand white rabbits
Procedure: For hemolysis measurements, citrated whole blood was collected from New Zealand white rabbits and separated by centrifugation at 2000 rpm for 10 minutes. Red blood cells were washed five times with Dulbecco's phosphate buffered saline and stored at 4° C. until use. In each assay, the peptide of interest was added to 1×10^7 red blood cells in PBS and incubated at 37° C. for one hour. Afterwards, intact red blood cells were pelleted by centrifugation at 2000 rpm for 5 minutes and absorbance of the supernatant at 450 nm was measured using a Bio-Rad Model 550 plate reader (Bio-Rad Laboratories, Hercules, Calif.) with reference wavelength 630 nm To determine percent lysis, absorbance readings were normalized to lysis with 0.1% Triton™ X-100.
To assess the impact of proteolytic cleavage on conjugate cytotoxicity and hemolytic activity, we repeated these experiments following cleavage of the conjugate by matrix metalloproteinase-9 (MMP-9). Recombinant MMP-9 (R&D Systems, Minneapolis, Minn.) was activated by incubation with 1 mM 4-aminophenylmercuric acetate (APMA; Sigma-Aldrich, St. Louis, Mo.) at 37° C. for 2 hours. Free APMA was removed by dialysis against TCNBZ buffer (150 mM NaCl, 50 mM Tris, 10 mM CaCl2, 10 μM ZnCl2, 0.05% (w/v) Brij-35, pH 7.75) for 2 hours using a Slide-A-Lyzer MINI Dialysis Device, 2K MWCO (Thermo Scientific, Waltham, Mass.) with a dialysate change at 1 hour. […]

[4] = system: 2F2B endothelial cells; assay: XTT cytotoxicity assay, 2F2B endothelial cells; assay type: cell-based; conditions: 3 hours at 37° C., FIGS. 1A-1C
Procedure: as §1, §2

[5] = Peptide loading onto perfluorocarbon nanoparticles; assay type: physicochemical; conditions: 1 mM peptide in phosphate-buffered saline, 4° C., 1 hour
Procedure: Conjugate-loaded nanoparticles were formulated by mixing known amounts of conjugate to non-targeted perfluorocarbon nanoparticles prepared in Example 1A and compared to melittin loading. Both melittin and the conjugate were produced by solid-phase peptide synthesis (melittin: GenScript, Piscataway, N.J.; conjugate: American Peptide Company, Sunnyvale, Calif.). Perfluorocarbon nanoparticles were incubated with 1 mM melittin or conjugate in phosphate-buffered saline at 4° C. for 1 hour. Nanoparticles were then isolated by centrifugation at 5,000 rpm for 15 minutes. The supernatant was removed and nanoparticles were washed three times with phosphate-buffered saline to remove free peptide.

CC[C@H](C)[C@H](NC(=O)CNC(=O)[C@H](CCC(N)=O)NC(=O)CNC(=O)[C@H](C)NC(=O)[C@@H](NC(=O)CNC(=O)[C@H](CCC(N)=O)NC(=O)[C@@H]1CCCN1C(=O)CNC(=O)[C@H](C)NC(=O)[C@H](CCC(=O)O)NC(=O)[C@@H]1CCCN1C(=O)[C@H](CC(=O)O)NC(=O)[C@H](C)NC(=O)[C@H](CCC(=O)O)NC(=O)[C@H](C)NC(=O)[C@H](CC(=O)O)NC(=O)[C@H](C)NC(=O)[C@H](CCC(=O)O)NC(=O)[C@H](C)NC(=O)[C@H](CCC(=O)O)NC(=O)[C@@H]1CCCN1C(=O)[C@H](CCC(=O)O)NC(=O)[C@@H]1CCCN1C(=O)[C@H](C)NC(=O)[C@@H]1CCCN1C(=O)[C@H](CCC(=O)O)NC(=O)[C@@H]1CCCN1)[C@@H](C)CC)C(=O)NCC(=O)N[C@@H](C)C(=O)N[C@H](C(=O)N[C@@H](CC(C)C)C(=O)N[C@@H](CCCCN)C(=O)N[C@H](C(=O)N[C@@H](CC(C)C)C(=O)N[C@H](C(=O)N[C@H](C(=O)NCC(=O)N[C@@H](CC(C)C)C(=O)N1CCC[C@H]1C(=O)N[C@@H](C)C(=O)N[C@@H](CC(C)C)C(=O)N[C@H](C(=O)N[C@@H](CO)C(=O)N[C@@H](Cc1c[nH]c2ccccc12)C(=O)N[C@H](C(=O)N[C@@H](CCCCN)C(=O)N[C@@H](CCCNC(=N)N)C(=O)N[C@@H](CCCCN)C(=O)N[C@@H](CCCNC(=N)N)C(=O)N[C@@H](CCC(N)=O)C(=O)N[C@@H](CCC(N)=O)C(N)=O)[C@@H](C)CC)[C@@H](C)CC)[C@@H](C)O)[C@@H](C)O)C(C)C)C(C)C [Pro-P2]
cytotoxicity to melanoma cells [1]: substantially cytotoxic
change of cytolytic activity / cytotoxicity relative to melittin [2]: reduced melittin cytotoxicity and hemolytic activity by at least two orders of magnitude
hemolytic activity after cleavage by MMP-9 ([3]; conjugate 200 μM cleaved with 20 nM MMP-9, 3 hours at 37° C.): restored
change of cytolytic / hemolytic activity relative to melittin ([3]; rabbit red blood cells in PBS, 37° C., one hour, FIGS. 1A-1C): reduced melittin cytotoxicity and hemolytic activity by at least two orders of magnitude
change of cytolytic activity / cytotoxicity relative to melittin [4]: reduced melittin cytotoxicity and hemolytic activity by at least two orders of magnitude

CC[C@H](C)[C@H](NC(=O)CN)C(=O)NCC(=O)N[C@@H](C)C(=O)N[C@H](C(=O)N[C@@H](CC(C)C)C(=O)N[C@@H](CCCCN)C(=O)N[C@H](C(=O)N[C@@H](CC(C)C)C(=O)N[C@H](C(=O)N[C@H](C(=O)NCC(=O)N[C@@H](CC(C)C)C(=O)N1CCC[C@H]1C(=O)N[C@@H](C)C(=O)N[C@@H](CC(C)C)C(=O)N[C@H](C(=O)N[C@@H](CO)C(=O)N[C@@H](Cc1c[nH]c2ccccc12)C(=O)N[C@H](C(=O)N[C@@H](CCCCN)C(=O)N[C@@H](CCCNC(=N)N)C(=O)N[C@@H](CCCCN)C(=O)N[C@@H](CCCNC(=N)N)C(=O)N[C@@H](CCC(N)=O)C(=O)N[C@@H](CCC(N)=O)C(N)=O)[C@@H](C)CC)[C@@H](C)CC)[C@@H](C)O)[C@@H](C)O)C(C)C)C(C)C [melittin]
loading, peptides per nanoparticle [5]: approximately 16,000 peptides per nanoparticle

Source: US20160296628A1, “NANOPARTICLE DELIVERY SYSTEMS FOR CYTOLYTIC PEPTIDE PRODRUGS” (Washington University, priority 2015, published 2016)
